Assay results from patent US20250092017A1, “2-PIPERIDYL OR 2-PYRAZOLYL SUBSTITUTED PYRIMIDINE COMPOUND SERVING AS EGFR INHIBITOR” (SUZHOU PUHE BIOPHARMA CO., LTD., priority 2022, published 2025).
Like-named read-outs stand apart in the source and are kept apart here.

Experiments:
Assay type in all cases: cell-based
[1] = target: T1, Ba/F3-TEL-EGFR-L858R-C797S (Homo sapiens, UniProt P00533, C797S/L858R, cells depend on it); assay: CellTiter-Glo proliferation, Ba/F3-TEL-EGFR-L858R-C797S; settings: 72 hours, read-out: Ba/F3-TEL-EGFR-L858R-C797S IC50/nM
T1 construct: fused on or other part: N-terminal TEL (ETV6) oligomerising part fused to the EGFR intracellular/kinase part; P41212 (Transcription factor ETV6)
T1 sequence (P00533 whole entry C797S/L858R, the tested form may be a part): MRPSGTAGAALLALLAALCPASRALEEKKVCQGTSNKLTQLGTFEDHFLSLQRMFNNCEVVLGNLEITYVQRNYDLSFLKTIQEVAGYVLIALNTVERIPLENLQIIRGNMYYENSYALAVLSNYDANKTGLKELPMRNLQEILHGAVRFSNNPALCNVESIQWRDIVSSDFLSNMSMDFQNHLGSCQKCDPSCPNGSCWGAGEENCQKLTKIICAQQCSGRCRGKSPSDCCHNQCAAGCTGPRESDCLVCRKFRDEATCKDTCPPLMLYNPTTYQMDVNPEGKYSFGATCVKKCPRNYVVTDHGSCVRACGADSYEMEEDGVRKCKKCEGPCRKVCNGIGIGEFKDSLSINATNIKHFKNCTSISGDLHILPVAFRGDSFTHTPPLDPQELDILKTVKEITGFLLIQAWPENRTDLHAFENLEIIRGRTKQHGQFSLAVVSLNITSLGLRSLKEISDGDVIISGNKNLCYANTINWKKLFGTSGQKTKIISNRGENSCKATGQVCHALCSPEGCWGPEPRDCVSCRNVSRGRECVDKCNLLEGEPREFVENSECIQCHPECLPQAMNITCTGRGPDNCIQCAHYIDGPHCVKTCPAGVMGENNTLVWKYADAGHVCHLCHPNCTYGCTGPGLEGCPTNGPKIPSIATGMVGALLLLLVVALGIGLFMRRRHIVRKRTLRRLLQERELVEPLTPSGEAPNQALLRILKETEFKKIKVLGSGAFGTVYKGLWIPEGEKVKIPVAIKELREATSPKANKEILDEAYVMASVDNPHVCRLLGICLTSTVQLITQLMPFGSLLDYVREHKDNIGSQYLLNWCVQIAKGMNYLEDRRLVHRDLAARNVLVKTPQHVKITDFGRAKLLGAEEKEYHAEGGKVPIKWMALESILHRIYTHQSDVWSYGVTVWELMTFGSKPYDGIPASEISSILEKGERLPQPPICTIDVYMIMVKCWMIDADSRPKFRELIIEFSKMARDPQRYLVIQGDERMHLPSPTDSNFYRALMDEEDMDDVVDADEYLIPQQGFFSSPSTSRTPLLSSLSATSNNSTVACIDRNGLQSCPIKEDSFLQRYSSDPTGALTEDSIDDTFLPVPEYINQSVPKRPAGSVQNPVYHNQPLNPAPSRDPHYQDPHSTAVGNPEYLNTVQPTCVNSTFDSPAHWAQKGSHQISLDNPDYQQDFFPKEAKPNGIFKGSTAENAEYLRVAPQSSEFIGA
Procedure: (§1) Promega CellTiter-Glo reagent was used to detect the effects of small molecule inhibitors on the proliferation of five Ba/F3 cell lines (Ba/F3-FL-EGFR, Ba/F3-FL-EGFR-L858R, Ba/F3-FL-EGFR-L858R-T790M-C797S, Ba/F3-TEL-EGFR-L858R-C797S and Ba/F3-FL-EGFR-del19-C797S).
(§2) The cell lines were cultured in an incubator at 37° C. and 5% CO2. Cells were passaged regularly and cells in the logarithmic phase were used for plating. 95 μL of cell suspension was added to each well of the cell plate, and culture medium without cells (containing 0.1% DMSO) was added to the Min control wells. Substance addition for compound detection cell plate: 5 μL of 20× compound working solution was added to the cell culture plate as shown in the table below. 50 μL of DMSO-cell culture medium mixture was added to the Max control, with the final DMSO concentration of 0.1%. 5 μL of DMSO-cell culture medium mixture was added to the Max control. The final DMSO concentration was 0.1%.
(§3) The compounds to be tested were added as per the table below
(§4) Cell viability was detected by CellTiter-Glo luminescence assay. Data analysis:
(§5) The cell proliferation inhibition rate (Inhibition Rate) data was processed using the following formula: […]
(§6) wherein: RLUDrug represents the relative luminescence unit of the cells with the addition of drug, RLUMin represents the luminescence unit of the culture medium, and RLUMax represents the relative luminescence unit of the cells with the addition of DMSO.
(§7) The inhibition rates corresponding to different concentrations of compounds were calculated in EXCEL, and then the inhibition rate curve was plotted using GraphPad Prism software and related parameters including the maximum and minimum inhibition rates of cells and IC50 values were calculated.

Ba/F3-FL-EGFR = target: T2, Ba/F3-FL-EGFR (Homo sapiens, UniProt P00533); assay: CellTiter-Glo proliferation, Ba/F3-FL-EGFR; settings: 72 hours, read-out: Ba/F3-FL-EGFR IC50/nM
T2 construct: FL read as full length
T2 sequence (P00533 whole entry, change not shown): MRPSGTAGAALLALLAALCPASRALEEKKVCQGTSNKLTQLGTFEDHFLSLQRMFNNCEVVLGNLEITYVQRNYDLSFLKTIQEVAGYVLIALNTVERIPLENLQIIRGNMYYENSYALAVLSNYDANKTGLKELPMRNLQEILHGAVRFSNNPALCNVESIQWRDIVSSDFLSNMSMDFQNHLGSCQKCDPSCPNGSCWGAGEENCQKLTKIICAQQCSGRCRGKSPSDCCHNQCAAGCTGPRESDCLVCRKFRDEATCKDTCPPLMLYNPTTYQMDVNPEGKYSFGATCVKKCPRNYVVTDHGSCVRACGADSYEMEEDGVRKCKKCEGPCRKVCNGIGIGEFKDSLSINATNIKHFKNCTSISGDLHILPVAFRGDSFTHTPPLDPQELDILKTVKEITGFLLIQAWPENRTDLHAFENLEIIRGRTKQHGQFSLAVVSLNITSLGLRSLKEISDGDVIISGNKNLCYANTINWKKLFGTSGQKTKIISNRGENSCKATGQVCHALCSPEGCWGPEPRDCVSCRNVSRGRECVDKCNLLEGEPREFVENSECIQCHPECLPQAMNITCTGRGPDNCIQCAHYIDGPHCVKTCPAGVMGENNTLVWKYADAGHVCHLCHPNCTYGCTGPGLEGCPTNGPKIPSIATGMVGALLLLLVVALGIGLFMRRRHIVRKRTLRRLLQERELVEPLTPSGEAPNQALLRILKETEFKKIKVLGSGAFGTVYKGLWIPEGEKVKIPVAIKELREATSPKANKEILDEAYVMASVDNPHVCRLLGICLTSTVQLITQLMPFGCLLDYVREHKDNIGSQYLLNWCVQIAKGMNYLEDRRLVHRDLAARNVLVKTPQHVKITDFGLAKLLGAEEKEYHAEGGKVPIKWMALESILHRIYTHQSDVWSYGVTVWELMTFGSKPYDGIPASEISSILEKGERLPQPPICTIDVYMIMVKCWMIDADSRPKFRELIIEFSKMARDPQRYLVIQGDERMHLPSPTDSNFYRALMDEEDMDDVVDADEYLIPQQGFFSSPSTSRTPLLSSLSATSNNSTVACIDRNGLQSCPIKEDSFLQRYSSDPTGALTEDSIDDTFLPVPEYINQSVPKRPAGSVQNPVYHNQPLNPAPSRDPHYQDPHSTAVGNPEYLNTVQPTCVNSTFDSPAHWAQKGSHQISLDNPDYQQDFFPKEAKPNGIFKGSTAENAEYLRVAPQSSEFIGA
Procedure: as §1, §2, §3, §4, §5, §6, §7

[2] = tested on: Ba/F3-FL-EGFR-del19-C797S; assay: CellTiter-Glo proliferation, Ba/F3-FL-EGFR-del19-C797S; settings: proliferation, 72 hours, CellTiter-Glo, read-out: Ba/F3-FL-EGFR-del19-C797S IC50/nM
Procedure: as §1, §2, §3, §4, §5, §6, §7

Ba/F3-FL-EGFR-L858R = Ba/F3-FL-EGFR-L858R (Homo sapiens, UniProt P00533, L858R, cells depend on it); assay: CellTiter-Glo proliferation, Ba/F3-FL-EGFR-L858R; settings: 72 hours, read-out: Ba/F3-FL-EGFR-L858R IC50/nM
Chain of Ba/F3-FL-EGFR-L858R (P00533 whole entry L858R): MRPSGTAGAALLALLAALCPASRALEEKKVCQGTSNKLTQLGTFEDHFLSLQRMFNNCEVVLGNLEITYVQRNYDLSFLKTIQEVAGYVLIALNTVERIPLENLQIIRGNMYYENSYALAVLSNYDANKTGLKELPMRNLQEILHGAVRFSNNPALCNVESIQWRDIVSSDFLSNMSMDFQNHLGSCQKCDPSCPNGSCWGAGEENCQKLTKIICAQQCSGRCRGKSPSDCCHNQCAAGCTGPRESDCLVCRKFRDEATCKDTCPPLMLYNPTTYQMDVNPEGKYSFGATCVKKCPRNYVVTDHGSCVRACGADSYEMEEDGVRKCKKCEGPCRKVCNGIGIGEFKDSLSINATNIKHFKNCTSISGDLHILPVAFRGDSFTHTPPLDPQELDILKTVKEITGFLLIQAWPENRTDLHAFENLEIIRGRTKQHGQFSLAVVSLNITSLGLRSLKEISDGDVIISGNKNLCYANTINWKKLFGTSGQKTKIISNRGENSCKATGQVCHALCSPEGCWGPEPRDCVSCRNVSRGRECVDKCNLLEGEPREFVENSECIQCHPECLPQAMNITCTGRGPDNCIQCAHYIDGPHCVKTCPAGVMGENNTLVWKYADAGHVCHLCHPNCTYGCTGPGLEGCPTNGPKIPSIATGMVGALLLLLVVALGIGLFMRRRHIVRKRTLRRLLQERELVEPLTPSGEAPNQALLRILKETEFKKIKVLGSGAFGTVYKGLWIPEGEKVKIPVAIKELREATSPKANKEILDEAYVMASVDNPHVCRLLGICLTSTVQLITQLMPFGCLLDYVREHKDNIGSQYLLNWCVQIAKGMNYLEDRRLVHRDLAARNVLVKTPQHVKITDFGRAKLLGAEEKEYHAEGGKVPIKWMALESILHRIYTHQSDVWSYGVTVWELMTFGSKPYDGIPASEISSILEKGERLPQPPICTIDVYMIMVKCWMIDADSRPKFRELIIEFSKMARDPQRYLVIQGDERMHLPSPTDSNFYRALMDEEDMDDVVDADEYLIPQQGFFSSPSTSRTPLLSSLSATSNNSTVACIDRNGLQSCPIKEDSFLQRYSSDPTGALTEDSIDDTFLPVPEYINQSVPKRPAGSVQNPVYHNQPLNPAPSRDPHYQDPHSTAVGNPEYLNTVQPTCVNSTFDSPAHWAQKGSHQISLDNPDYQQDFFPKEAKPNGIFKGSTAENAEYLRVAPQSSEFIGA
Procedure: as §1, §2, §3, §4, §5, §6, §7

[3] = target: Ba/F3-FL-EGFR-L858R-T790M-C797S (Homo sapiens, UniProt P00533, T790M/C797S/L858R, cells depend on it); assay: CellTiter-Glo proliferation, Ba/F3-FL-EGFR-L858R-T790M-C797S; settings: 72 hours, read-out: Ba/F3-FL-EGFR-L858R-T790M-C797S IC50/nM
Chain of Ba/F3-FL-EGFR-L858R-T790M-C797S (P00533 whole entry T790M/C797S/L858R): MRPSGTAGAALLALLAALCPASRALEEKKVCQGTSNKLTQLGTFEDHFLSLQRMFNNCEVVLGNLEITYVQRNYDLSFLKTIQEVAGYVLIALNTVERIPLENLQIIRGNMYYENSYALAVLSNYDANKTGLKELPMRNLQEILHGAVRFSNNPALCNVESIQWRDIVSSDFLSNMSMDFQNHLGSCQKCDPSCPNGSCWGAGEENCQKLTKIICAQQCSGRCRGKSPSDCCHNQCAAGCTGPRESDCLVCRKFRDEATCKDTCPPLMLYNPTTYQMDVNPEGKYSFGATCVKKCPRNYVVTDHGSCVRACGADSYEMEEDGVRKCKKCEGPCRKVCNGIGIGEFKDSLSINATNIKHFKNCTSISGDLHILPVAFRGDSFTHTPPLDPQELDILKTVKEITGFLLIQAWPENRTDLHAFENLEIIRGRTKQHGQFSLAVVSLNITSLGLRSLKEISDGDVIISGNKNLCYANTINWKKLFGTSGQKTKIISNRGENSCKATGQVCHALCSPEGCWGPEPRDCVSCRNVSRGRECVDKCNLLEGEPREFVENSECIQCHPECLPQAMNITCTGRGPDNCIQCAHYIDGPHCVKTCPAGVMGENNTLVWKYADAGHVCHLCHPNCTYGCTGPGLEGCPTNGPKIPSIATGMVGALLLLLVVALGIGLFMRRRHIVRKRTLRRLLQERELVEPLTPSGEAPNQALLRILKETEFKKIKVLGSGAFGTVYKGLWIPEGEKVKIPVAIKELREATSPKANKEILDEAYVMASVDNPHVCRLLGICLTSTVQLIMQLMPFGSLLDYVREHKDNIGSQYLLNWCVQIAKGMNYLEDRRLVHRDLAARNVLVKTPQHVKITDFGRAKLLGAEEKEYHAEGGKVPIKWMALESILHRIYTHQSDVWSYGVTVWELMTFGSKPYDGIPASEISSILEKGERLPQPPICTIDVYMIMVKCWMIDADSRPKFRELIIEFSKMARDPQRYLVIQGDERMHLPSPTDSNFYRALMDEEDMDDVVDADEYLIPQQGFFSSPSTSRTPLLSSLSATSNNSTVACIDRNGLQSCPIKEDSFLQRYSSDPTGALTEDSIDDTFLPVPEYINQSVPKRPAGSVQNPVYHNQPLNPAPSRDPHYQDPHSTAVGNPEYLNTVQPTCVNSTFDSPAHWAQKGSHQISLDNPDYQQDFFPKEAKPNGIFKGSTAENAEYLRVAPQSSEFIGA
Procedure: as §1, §2, §3, §4, §5, §6, §7

Compound | GI50 [1] [nM] | GI50 (Ba/F3-FL-EGFR) [nM] | IC50 ([2]; 72 h) [nM] | GI50 (Ba/F3-FL-EGFR-L858R) [nM] | GI50 [3] [nM] | IC50 [2] [nM]
COCCS(=O)(=O)n1cc(-c2nccc(Nc3cc4c(C(C)C)ccc(N5C[C@H](CS(C)(=O)=O)[C@H]5C)c4cn3)n2)cn1 [Compound H21] | 1.8 | 76 | 4.3 | 2.9 | 4.4 | 
COCCS(=O)(=O)n1cc(-c2nccc(Nc3cc4c(C(C)C)ccc(N5CC(CS(C)(=O)=O)C5)c4cn3)n2)cn1 [Compound H15] | 4.3 | 148 |  | 5.7 | 8.6 | 6.6
CCS(=O)(=O)N(C)[C@H]1CN(c2ccc(C(C)C)c3cc(Nc4ccnc(N5CCC(OC)C(F)C5)n4)ncc23)[C@@H]1C (stereo partly drawn) [Compound P43] | 9.8 | 593 | 142 | 36 | 5.6 | 
COC1CCN(c2nccc(Nc3cc4c(C(C)C)ccc(N5CC(N(C)S(C)(=O)=O)C5)c4cn3)n2)CC1F (stereo not drawn) [Compound P36] | 8.3 | 1090 | 159 | 33 | 14 | 
CC(C)c1ccc(N2CC(CS(C)(=O)=O)C2)c2cnc(Nc3ccnc(-c4cnn(S(=O)(=O)c5ccccn5)c4)n3)cc12 [Compound H16] | 122 | 1360 | 264 | 235 | 652 | 
CCCS(=O)(=O)N(C)[C@H]1CN(c2ccc(C(C)C)c3cc(Nc4ccnc(-c5cnn(S(=O)(=O)C6CC6)c5)n4)ncc23)[C@@H]1C [Compound H33] | 5.9 | 202 | 7.1 | 14 | 13 | 
COCCS(=O)(=O)n1cc(-c2nccc(Nc3cc4c(C(C)C)ccc(N5CC(CS(C)(=O)=O)C5)c4cn3)n2)cn1 [Compound H20] | 22 | 2110 |  | 43 | 188 | 53
CCCS(=O)(=O)NC1CN(c2ccc(C(C)C)c3cc(Nc4ccnc(N5CCC(O)C(F)C5)n4)ncc23)C1 (stereo not drawn) [Compound P48] | 29 | 1170 | 144 | 76 | 31 | 
CCCS(=O)(=O)C[C@H]1CN(c2ccc(C(C)C)c3cc(Nc4ccnc(-c5cnn(S(=O)(=O)C6CC6)c5)n4)ncc23)[C@@H]1C [Compound H34] | 28 | 656 | 37 | 65 | 73 | 
CC(=O)NC1CN(c2ccc(C(C)C)c3cc(Nc4ccnc(N5CCC(O)C(F)C5)n4)ncc23)C1 (stereo not drawn) [Compound P35] | 1690 | 8760 | 3120 | 2520 | 1660 | 
CC(C)OCCS(=O)(=O)n1cc(-c2nccc(Nc3cc4c(C(C)C)ccc(N5C[C@H](CS(C)(=O)=O)[C@H]5C)c4cn3)n2)cn1 [Compound H32] | 226 | 3290 | 340 | 510 | 397 | 
CC(C)c1ccc(N2CC(NS(=O)(=O)N(C)C)C2)c2cnc(Nc3ccnc(N4CCC(O)C(F)C4)n3)cc12 (stereo not drawn) [Compound P27] | 74 | 2200 | 226 | 169 | 64 | 
CC(C)c1ccc(N2C[C@H](CS(C)(=O)=O)[C@H]2C)c2cnc(Nc3ccnc(-c4cnn(S(=O)(=O)N(C)C)c4)n3)cc12 [Compound H28] | 23 | 595 | 48 | 50 | 68 | 
COCCS(=O)(=O)N(C)C1CN(c2ccc(C(C)C)c3cc(Nc4ccnc(N5CCC(OC)C(F)C5)n4)ncc23)C1 (stereo not drawn) [Compound P49] | 36 | 1070 | 316 | 121 | 38 | 
CC(C)c1ccc(N2CC(CS(C)(=O)=O)C2)c2cnc(Nc3ccnc(-c4cnn(CC#N)c4)n3)cc12 [Compound H26] | 56 | 1420 | 128 | 74 | 336 | 
